Measurements from patent US7482363B2, “Piperidine derivatives useful as modulators of chemokine receptor activity” (AstraZeneca AB, priority 2002, dated 2009).

Experiments:
[1] = test system: Human eosinophils (eotaxin mediated chemotaxis); assay: Human eosinophil chemotaxis; format: cell-based
Protocol: Human Eosinophil Chemotaxis
Human eosinophils were isolated from EDTA anticoagulated peripheral blood as previously described (Hansel et al., J. Immunol. Methods, 1991, 145, 105-110). The cells were resuspended at 10×10^6 ml^−1 in RPMI containing 200 IU/ml penicillin, 200 μg/ml streptomycin sulphate and supplemented with 10% HIFCS, at room temperature.
Eosinophils (700 μl) were pre-incubated for 15 mins at 37° C. with 7 μl of either vehicle or compound (100× required final concentration in 10% DMSO). The chemotaxis plate (ChemoTx, 3 μm pore, Neuroprobe) was loaded by adding 28 μl of a concentration of eotaxin (0.1 to 100 nM) containing a concentration of a compound according to the Examples or solvent to the lower wells of the chemotaxis plate. The filter was then placed over the wells and 25 μl of eosinophil suspension were added to the top of the filter. The plate was incubated for 1 hr at 37° C. in a humidified incubator with a 95% air/5% CO2 atmosphere to allow chemotaxis.
The medium, containing cells that had not migrated, was carefully aspirated from above the filter and discarded. The filter was washed once with phosphate buffered saline (PBS) containing 5 mM EDTA to remove any adherent cells. […] The number of eosinophils migrating was quantified according to the method of Strath et al., J. Immunol. […]

[2] = target: T1, human H1 receptor (Homo sapiens, UniProt P35367); assay: Histamine H1 receptor binding, competition displacement of [3H]-pyrilamine; conditions: 1 nM [3H]-pyrilamine, membranes of recombinant CHO-K1 cells expressing the human H1 receptor; read-out: H1 antagonism pKi (converted)
T1 construct: purchased Euroscreen SA, Brussels, Belgium ES-390-M; host or cells: CHO-K1
Protocol: Histamine H1 receptor binding activity of compounds of the invention was assessed by competition displacement of 1 nM [3H]-pyrilamine (Amersham, Bucks, Product code TRK 608, specific activity 30 Ci/mmol) to 2 μg membranes prepared from recombinant CHO-K1 cells expressing the human H1 receptor (Euroscreen SA, Brussels, Belgium, product code ES-390-M) in assay buffer (50 mM Tris pH 7.4 containing 2 mM MgCl2, 250 mM sucrose and 100 mM NaCl) for 1 hour at room temperature.

T1 sequence (P35367 whole entry): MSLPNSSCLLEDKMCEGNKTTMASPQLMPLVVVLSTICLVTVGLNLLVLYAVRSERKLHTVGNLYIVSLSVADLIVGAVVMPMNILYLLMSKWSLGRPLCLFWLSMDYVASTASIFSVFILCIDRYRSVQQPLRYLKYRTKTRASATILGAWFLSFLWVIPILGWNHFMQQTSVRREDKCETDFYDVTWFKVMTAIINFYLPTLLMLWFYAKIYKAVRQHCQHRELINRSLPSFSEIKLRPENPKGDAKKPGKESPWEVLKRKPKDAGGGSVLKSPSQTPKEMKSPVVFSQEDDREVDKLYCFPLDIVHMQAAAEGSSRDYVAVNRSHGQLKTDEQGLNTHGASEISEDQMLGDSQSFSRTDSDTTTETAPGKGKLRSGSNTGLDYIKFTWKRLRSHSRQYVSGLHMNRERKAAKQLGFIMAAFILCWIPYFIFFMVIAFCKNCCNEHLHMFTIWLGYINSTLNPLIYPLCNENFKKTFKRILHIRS

Ki [2] [nM]	Compound	% Inhibition (3 nM Human Eotaxin) [1] [%]
158	COc1cccc(OC)c1C(C(=O)O)N1CCC(N2CCC(Oc3ccc(Cl)c(Cl)c3)CC2)CC1 (stereo not drawn) [Example 2, 4-(3,4-dichlorophenoxy)-α-(2,6-dimethoxyphenyl)-[1,4′-bipiperidine]-1′-acetic acid]	90
50.1	Cc1cc(Cl)ccc1OC1CCN(C2CCN(C(C(=O)O)c3ccccc3)CC2)CC1 (stereo not drawn) [Example 3, 4-(4-chloro-2-methylphenoxy)-α-phenyl-[1,4′-bipiperidine]-1′-acetic acid]	105
